# From article PMC9090415, “Discovery of small molecule inhibitors of Plasmodium falciparum apicoplast DNA polymerase” (Journal of Enzyme Inhibition and Medicinal Chemistry, 2022)
# Target: P. falciparum apicoplast DNA polymerase (Pf-apPOL) (Plasmodium falciparum, UniProt Q8ILY1)
# Experiment: Fluorescence-based high-throughput DNA polymerase assay (molecular beacon), primary screen and dose-response;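 on % inhibition ApPOL 90': test concentration in µM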;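 on % inhibition apPOL 180': test concentration in µM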
# Format: biochemical
# Details: for DNA Pol: unit not given
# Outline: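 Single-point screening used 10 µM compound with 20 nM polymerase, 20 nM hairpin substrate and 6 µM dNTPs for 90 min at 25 °C. Confirmatory titrations (2.5–80 µM) followed fluorescence at three times, and IC50 was derived from a fit including a cooperativity term n.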
# [1] = DRC-2, 180', concentration 20 (unit not given)
# Sequence of P. falciparum apicoplast DNA polymerase (Pf-apPOL) (Q8ILY1 entry or part of it): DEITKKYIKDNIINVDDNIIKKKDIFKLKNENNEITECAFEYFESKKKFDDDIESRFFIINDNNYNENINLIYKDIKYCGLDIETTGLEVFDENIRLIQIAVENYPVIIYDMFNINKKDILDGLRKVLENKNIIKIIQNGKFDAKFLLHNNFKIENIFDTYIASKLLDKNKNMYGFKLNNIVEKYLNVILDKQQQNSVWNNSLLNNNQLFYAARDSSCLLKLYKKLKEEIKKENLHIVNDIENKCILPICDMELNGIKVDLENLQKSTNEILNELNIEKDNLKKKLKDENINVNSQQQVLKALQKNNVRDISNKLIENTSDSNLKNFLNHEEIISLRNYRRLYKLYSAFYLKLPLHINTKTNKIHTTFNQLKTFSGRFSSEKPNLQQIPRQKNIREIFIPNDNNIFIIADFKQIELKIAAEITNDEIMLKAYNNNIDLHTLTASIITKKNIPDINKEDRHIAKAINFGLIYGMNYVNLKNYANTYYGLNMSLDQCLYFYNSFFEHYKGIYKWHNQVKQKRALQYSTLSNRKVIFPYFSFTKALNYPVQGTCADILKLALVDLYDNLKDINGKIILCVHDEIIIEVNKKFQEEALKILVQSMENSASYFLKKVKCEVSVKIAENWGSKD
compound,measurement,setting,value
Cc1nc2c(oc3nc(-c4ccoc4)c4c(c32)CC(C)(C)OC4)c(-c2ccccc2)c1C(=O)O [Molecule 93],IC50,"supplemental file 2, sheet IC50 nontoxic compounds, Pf-apPOL",6.29 µM
COc1cc(NC(=O)c2ccccc2)c(OC)cc1NC(=O)Cc1cccs1 [KU0032113],% inhibition Apo pol 10',"DRC-1, concentration 2.5",6.129%
same,% inhibition Apo pol 10',"DRC-1, concentration 5",17.2801%
same,% inhibition Apo pol 10',"DRC-1, concentration 10",38.185%
same,% inhibition Apo pol 10',"DRC-1, concentration 20",61.3818%
same,% inhibition Apo pol 10',"DRC-1, concentration 40",79.6269%
same,% inhibition Apo pol 10',"DRC-1, concentration 80",80.874%
same,% inhibition Apol 90',"DRC-1, 90', concentration 2.5",2.9%
same,% inhibition Apol 90',"DRC-1, 90', concentration 5",9.442%
same,% inhibition Apol 90',"DRC-1, 90', concentration 10",29.583%
same,% inhibition Apol 90',"DRC-1, 90', concentration 20",53.4832%
same,% inhibition Apol 90',"DRC-1, 90', concentration 40",79.1036%
same,% inhibition Apol 90',"DRC-1, 90', concentration 80",83.2869%
same,% inhibition apPOL 180',"DRC-1, 180', concentration 2.5",0.5437%
same,% inhibition apPOL 180',"DRC-1, 180', concentration 5",4.503%
same,% inhibition apPOL 180',"DRC-1, 180', concentration 10",19.4766%
same,% inhibition apPOL 180',"DRC-1, 180', concentration 20",39.9313%
same,% inhibition apPOL 180',"DRC-1, 180', concentration 40",73.4883%
same,% inhibition apPOL 180',"DRC-1, 180', concentration 80",81.431%
same,% inhibition Apo pol 5',"DRC-2, 5', concentration 2.5 (unit not given)",25%
same,% inhibition Apo pol 5',"DRC-2, 5', concentration 10 (unit not given)",38%
same,% inhibition Apo pol 5',"DRC-2, 5', concentration 20 (unit not given)",38%
same,% inhibition Apo pol 5',"DRC-2, 5', concentration 40 (unit not given)",34%
same,% inhibition Apol 40',"DRC-2, 40', concentration 2.5 (unit not given)",34%
same,% inhibition Apol 40',"DRC-2, 40', concentration 10 (unit not given)",54%
same,% inhibition Apol 40',"DRC-2, 40', concentration 40 (unit not given)",61%
same,% inhibition ApPOL 90',"DRC-2, 90', concentration 5 (unit not given)",25%
same,% inhibition ApPOL 90',"DRC-2, 90', concentration 10 (unit not given)",54%
same,% inhibition apPOL 180',[1],61%
same,% inhibition Apo pol 5',"DRC-2, 5', concentration 2.5",25%
same,% inhibition Apo pol 5',"DRC-2, 5', concentration 5",21%
same,% inhibition Apo pol 5',"DRC-2, 5', concentration 10",38%
same,% inhibition Apo pol 5',"DRC-2, 5', concentration 20",38%
same,% inhibition Apo pol 5',"DRC-2, 5', concentration 40",34%
same,% inhibition Apo pol 5',"DRC-2, 5', concentration 80",-20%
same,% inhibition Apol 40',"DRC-2, 40', concentration 2.5",34%
same,% inhibition Apol 40',"DRC-2, 40', concentration 5",28%
same,% inhibition Apol 40',"DRC-2, 40', concentration 10",54%
same,% inhibition Apol 40',"DRC-2, 40', concentration 20",62%
same,% inhibition Apol 40',"DRC-2, 40', concentration 40",61%
same,% inhibition Apol 40',"DRC-2, 40', concentration 80",35%
same,% inhibition ApPOL 90',"DRC-2, 90', concentration 2.5",31%
same,% inhibition ApPOL 90',"DRC-2, 90', concentration 5",25%
same,% inhibition ApPOL 90',"DRC-2, 90', concentration 10",54%
same,% inhibition ApPOL 90',"DRC-2, 90', concentration 20",64%
same,% inhibition ApPOL 90',"DRC-2, 90', concentration 40",66%
same,% inhibition ApPOL 90',"DRC-2, 90', concentration 80",47%
same,% inhibition apPOL 180',"DRC-2, 180', concentration 2.5",22%
same,% inhibition apPOL 180',"DRC-2, 180', concentration 5",13%
same,% inhibition apPOL 180',"DRC-2, 180', concentration 10",44%
same,% inhibition apPOL 180',"DRC-2, 180', concentration 20",61%
same,% inhibition apPOL 180',"DRC-2, 180', concentration 40",67%
same,% inhibition apPOL 180',"DRC-2, 180', concentration 80",59%
same,DNA Pol,primary screen value of the 186 hits,42
same,DNA Pol,"primary screen value, head ""DNA Pol""",42
CCCCCCCCCCCCCCCCCC(=O)CCN(C)C [KU0271928],% inhibition Apo pol 10',"DRC-1, concentration 2.5",4.376%
same,% inhibition Apo pol 10',"DRC-1, concentration 5",8.002%
same,% inhibition Apo pol 10',"DRC-1, concentration 10",14.7164%
same,% inhibition Apo pol 10',"DRC-1, concentration 20",22.8957%
same,% inhibition Apo pol 10',"DRC-1, concentration 40",29.808%
same,% inhibition Apo pol 10',"DRC-1, concentration 80",46.1524%
same,% inhibition Apol 90',"DRC-1, 90', concentration 2.5",3.047%
same,% inhibition Apol 90',"DRC-1, 90', concentration 5",4.9355%
same,% inhibition Apol 90',"DRC-1, 90', concentration 10",15.0466%
same,% inhibition Apol 90',"DRC-1, 90', concentration 20",24.954%
same,% inhibition Apol 90',"DRC-1, 90', concentration 40",42.2957%
same,% inhibition Apol 90',"DRC-1, 90', concentration 80",71.469%
same,% inhibition apPOL 180',"DRC-1, 180', concentration 2.5",2.105%
same,% inhibition apPOL 180',"DRC-1, 180', concentration 5",0.02519%
same,% inhibition apPOL 180',"DRC-1, 180', concentration 10",10.3787%
same,% inhibition apPOL 180',"DRC-1, 180', concentration 20",23.1469%
same,% inhibition apPOL 180',"DRC-1, 180', concentration 40",44.4373%
same,% inhibition apPOL 180',"DRC-1, 180', concentration 80",80.1406%
same,% inhibition Apol 40',"DRC-2, 40', concentration 5 (unit not given)",4%
same,% inhibition Apol 40',"DRC-2, 40', concentration 20 (unit not given)",13%
same,% inhibition apPOL 180',"DRC-2, 180', concentration 5 (unit not given)",4%
same,% inhibition apPOL 180',[1],13%
same,% inhibition Apo pol 5',"DRC-2, 5', concentration 2.5",0.736%
same,% inhibition Apo pol 5',"DRC-2, 5', concentration 5",1.37%
same,% inhibition Apo pol 5',"DRC-2, 5', concentration 10",2.68%
same,% inhibition Apo pol 5',"DRC-2, 5', concentration 20",5.52%
same,% inhibition Apo pol 5',"DRC-2, 5', concentration 40",18%
same,% inhibition Apo pol 5',"DRC-2, 5', concentration 80",37%
same,% inhibition Apol 40',"DRC-2, 40', concentration 2.5",2.22%
same,% inhibition Apol 40',"DRC-2, 40', concentration 5",4%
same,% inhibition Apol 40',"DRC-2, 40', concentration 10",4.59%
same,% inhibition Apol 40',"DRC-2, 40', concentration 20",13%
same,% inhibition Apol 40',"DRC-2, 40', concentration 40",28%
same,% inhibition Apol 40',"DRC-2, 40', concentration 80",61%
same,% inhibition ApPOL 90',"DRC-2, 90', concentration 2.5",1.86%
same,% inhibition ApPOL 90',"DRC-2, 90', concentration 5",3.32%
same,% inhibition ApPOL 90',"DRC-2, 90', concentration 10",2.69%
same,% inhibition ApPOL 90',"DRC-2, 90', concentration 20",12%
same,% inhibition ApPOL 90',"DRC-2, 90', concentration 40",30%
same,% inhibition ApPOL 90',"DRC-2, 90', concentration 80",67%
same,% inhibition apPOL 180',"DRC-2, 180', concentration 2.5",1.53%
same,% inhibition apPOL 180',"DRC-2, 180', concentration 5",4%
same,% inhibition apPOL 180',"DRC-2, 180', concentration 10",2.45%
same,% inhibition apPOL 180',"DRC-2, 180', concentration 20",13%
same,% inhibition apPOL 180',"DRC-2, 180', concentration 40",31%
same,% inhibition apPOL 180',"DRC-2, 180', concentration 80",73%
same,DNA Pol,"primary screen value of the 186 hits, 90 min, 10 µM",46
same,DNA Pol,"primary screen value, head ""DNA Pol"", 90 min, 10 µM",46
